The values that follow come from US7091207B2, “Method of treating myocardial infarction with PDE-5 inhibitors” (Virginia Commonwealth University, priority 2002, dated 2006).

The structures appear in SMILES notation.

Assay [1] has as its system doxorubicin-induced cardiotoxicity in mice. The assay is described as follows: Chronic mouse model of doxorubicin-induced cardiotoxicity. Type of assay: in vivo. The following applies: DOX-treated mice; sildenafil citrate 0.7 mg/kg ip. Here is the method:
Mice are treated with doxorubicin in the presence or absence of clinically relevant doses of sildenafil citrate, and the left ventricular systolic function is correlateed using 2-dimensional (2D) contrast echocardiography. The actions of dosing sildenafil citrate 24 hours prior to each dose of doxorubicin (Total of 3 doses) versus dosing sildenafil citrate daily for 28 days is tested. Histological examination is performed to assess the ultrastructural alterations including nuclear condensation with coarse chromatin clumping, sarcoplasmic reticulum vacuolization, and mitochondrial fine structure disruption which are known to occur widely in doxorubicin-treated cardiomyocytes. […] The role of sildenafil in attenuation of DOX-induced apoptosis and attenuation of mitochondrial transition pore opening is assessed. The contribution of […] channel opening in rescuing DOX-induced cell death in sildenafil treated mice is determined by using 5-hydroxydecanoate, a selective blocker of the […] channel.
Materials and methods. […] Weight of all animals is measured weekly and gross heart weight is measured prior to freezing in liquid nitrogen. […] Specifically, nuclear chromatinmargination, mitochondrial swelling, cristae disappearance/matrix clearing, presence or absence of contractile apparatus disarray, and sarcoplasmic reticulum vacuolization is measured.

Assay [2] has as its system mouse heart, global I-R injury. The assay is described as follows: Isolated perfused mouse heart (Langendorff), 20 min global ischemia and 30 min reperfusion after in vivo treatment. Here is the method:
Adult male outbred ICR mice were supplied by Harlan Inc (Indianapolis, Ind.). Viagra pills (Pfizer Inc) were ground into powder and dissolved in saline. The drug solution was filtered (0.45-μm pore size) before intraperitoneal injection. 1400W, an iNOS inhibitor, was obtained from Alexis. We used an isolated perfused mouse heart model subjected to 20 minutes of global ischemia and 30 minutes of reperfusion (Langendorff mode). Myocardial I-R injury was assessed by measuring infarct size, contractile function, and coronary flow as described previously (Xi, 1999). Twenty-eight mice were randomized into the following 4 groups: (n=6 to 9 per group): (1) saline (0.15 mL IP), (2) sildenafil (0.7 mg/kg IP, equivalent to 50 mg Viagra pill used for patients with erectile dysfunction, given 24 hours before I-R), (3) sildenafil+1400W (10 mg/kg IP, 14 given 30 minutes before I-R), and (4) saline+1400W. Measurement of NOS Isoforms Mice were treated with sildenafil (0.7 mg/kg IP), and their hearts were removed at 15, 30, and 45 minutes and 1, 2, 3, 4, and 24 hours after injection (n=3 per group). Three nontreated hearts were used as controls. Tissue samples were ground under liquid nitrogen and homogenized with TRI Reagent (Molecular Research Center) for extracting total RNA, which was reverse-transcribed into cDNA at 50° C. for 30 minutes using a OneStep reverse transcription (RT)-polymerase chain reaction (PCR) kit from Qiagen. The oligonucleotide primers were synthesized on the basis of published sequences for murine iNOS, eNOS, and GAPDH15 (Integrated DNA Technology). The RT-PCR products were electrophoresed on 1.5% Trisacetate-EDTA agarose gel. The target bands were identified on the basis of their specific size using DNA standards. iNOS and eNOS proteins were measured by Western blots as described previously. 13 In brief, triplicate heart samples were collected 24 hours after saline or sildenafil injection and homogenized in ice-cold RIPA buffer (Upstate Biotechnology). The homogenate was centrifuged at 10,000 g for 10 minutes at 4° C., and supernatant was recovered as the total cellular protein. Total protein (60 μg) from each sample was separated by SDS-PAGE on 10% acrylamide gels, transferred to a polyvinylidine difluoride membrane, and then blocked with 5% nonfat dry milk in Tris-buffered saline. The membrane was subsequently incubated with a rabbit polyclonal antibody (dilution 1:500, Santa Cruz) reacting specifically to iNOS, eNOS, or actin. The secondary antibody was a horseradish peroxidase-conjugated anti-rabbit IgG (1:1000 dilution, Amersham). The membranes were developed using enhanced chemiluminescence and exposed to x-ray film. The mRNA and protein expression were quantified by scanning each of the RT-PCR or Western blot band using a densitometer (Bioquant 98). […]

Assay [3] deals with cardiac myocytes from adult mice. The assay is described as follows: Simulated ischemia/reoxygenation in isolated cardiac myocytes (trypan blue, TUNEL). It is filed as cell-based. The following applies: 10 μM, 40 min simulated ischemia. Here is the method:
The ability of sildenafil to confer protection against necrosis and apoptosis in cardiac myocytes was tested. Freshly isolated myocytes from adult mice were exposed to simulated ischemia with or without sildenafil (10 μM) for 40 minutes followed by reoxygenation for 60 minutes. The ischemic buffer contained (in mM): 118 NaCl, 24 NaHCO3, 1.0 NaH2PO4, 2.5 CaCl2-2H2O, 1.2 MgCl2, 20 sodium lactate, 16 KCl, 10 2-deoxyglucose (pH adjusted to 6.2). At the end of this protocol, necrotic cell death was evaluated by uptake of trypan blue using a phase contrast microscope. To determine apoptosis, the myocytes were reoxygenated for an extended period of 18 hrs after incubating them in the ischemic buffer for 40 minutes. Apoptosis was determined using the terminal deoxynucleotide nick-end labeling (TUNEL) assay which detects cells undergoing programmed cell death due to DNA fragmentation.

[4] abbreviates: 0.7 mg/kg IP 24 hours before I-R.

In the case of `CCCc1nn(C)c2c(=O)[nH]c(-c3cc(S(=O)(=O)N4CCN(C)CC4)ccc3OCC)nc12` [sildenafil], in assay [1], the LV function entry was “improves LV function” and the “ultrastructural damage to the heart” value is listed as “reduces ultrastructural damage to the heart”. In assay [2] (setting [4]), the “preischemic or postischemic coronary flow” value is reported as “did not alter” and the “ventricular contractile function (stunning)” value is “not associated with compromised ventricular contractile function”. Further, the infarct size in assay [2] (sildenafil 0.7 mg/kg IP 24 hours before I-R) stood at 6.9±1.2%. Further, the “necrotic cell death by trypan blue uptake” value in assay [3] (60 min reoxygenation) is “significantly more blue (i.e. viable) cells”. Besides, in assay [3] (18 hrs reoxygenation), the “apoptosis by TUNEL staining” value is on record as “rescues myocytes against apoptotic cell death”.
